Experiments:
Type in all cases: cell-based
Cyclotella cryptica = assay: Antibiotic sensitivity in diatoms, growth on solid media; conditions: C. cryptica; for lowest concentration of the antibiotic per ml required for cell death or the highest concentration tested: Table C, 100% I.O. media, 2 weeks of illumination
Protocol: (§1) The diatoms Phaeodactylum tricornutum, Cylindrotheca fusiformis, Cyclotella cryptica and Nitzschia alba were extensively tested for sensitivity to a series of antibiotics for which resistance genes are available, and the lowest concentrations which completely abrogate growth were determined for each antibiotic (Table C). […] These include antibiotics such as G418, Hygromycin, Kanamycin and Spectinomycin, which are routinely utilized for selection of other eukaryotic organisms.
(§2) The effective concentration range of the antibiotic in most cases was lowered by a factor of 10.
After 2 weeks of illumination the growth of the cells was assessed and the concentration of antibiotic required for cell death was determined. (Table D).

[1] = tested on: diatoms Phaeodactylum tricornutum, Cylindrotheca fusiformis, Cyclotella cryptica and Nitzschia alba; assay: Antibiotic sensitivity, statements for the diatoms tested together; conditions: for cell death: 100% I.O. media, the diatoms tested; for effect on growth of the diatoms: compared to effectiveness in other eukaryotic organisms
Protocol: as §1, §2
(§3) Cells of each diatom species were plated on solid media at salinity equivalents of 25-100% I.O. media, with a gradient of antibiotic concentrations. After 2 weeks of illumination the growth of the cells was assessed and the concentration of antibiotic required for cell death was determined. (Table D).

[2] = tested on: Phaeodactylum tricornutum; assay: Antibiotic sensitivity in diatoms, growth on solid media; conditions: P. tricornutum; for lowest concentration of the antibiotic per ml required for cell death or the highest concentration tested: Table C, 100% I.O. media, 2 weeks of illumination
Protocol: as §1, §2, §3

Cylindrotheca fusiformis = assay: as above; conditions: C. fusiformis; for lowest concentration of antibiotic per ml required for cell death or the lowest concentration tested: media with reduced salinity, 25% of normal seawater; for lowest concentration of the antibiotic per ml required for cell death or the highest concentration tested: Table C, 100% I.O. media, 2 weeks of illumination
Protocol: as §1, §2, §3

Nitzschia alba = assay: as above; design: unit not given here; conditions: N. alba; Table C; 100% I.O. media; 2 weeks of illumination
Protocol: as §1, §3

Phleomycin
lowest concentration of the antibiotic per ml required for cell death or the highest concentration tested (Cyclotella cryptica): 25 mg per ml
lowest concentration of antibiotic per ml required for cell death or the lowest concentration tested (Cyclotella cryptica; media with reduced salinity, 10% of normal seawater): <5 mg (10%) mg per ml
cell death [1]: resulted in cell death
lowest concentration of antibiotic per ml required for cell death or the lowest concentration tested ([2]; media with reduced salinity, 25% of normal seawater): <5 mg (25%) mg per ml
lowest concentration of antibiotic per ml required for cell death or the lowest concentration tested (Cylindrotheca fusiformis): <5 mg (25%) mg per ml

NC[C@H]1O[C@H](O[C@H]2[C@H](O)[C@@H](O[C@H]3O[C@H](CO)[C@@H](O)[C@H](N)[C@H]3O)[C@H](N)C[C@@H]2N)[C@H](O)[C@@H](O)[C@@H]1O [Kanamycin]
lowest concentration of the antibiotic per ml required for cell death or the highest concentration tested (Cyclotella cryptica): >1 mg per ml
lowest concentration of the antibiotic per ml required for cell death or the highest concentration tested [2]: >1 mg per ml
lowest concentration of the antibiotic per ml required for cell death or the highest concentration tested (Cylindrotheca fusiformis): >1 mg per ml

[H]/N=C(/N)N[C@H]1[C@H](O)[C@@H](O)[C@H](O[C@@H]2O[C@@H](C)[C@](O)(C=O)[C@H]2O[C@@H]2O[C@@H](CO)[C@H](O)[C@@H](O)[C@@H]2NC)[C@@H](N/C(N)=N\[H])[C@@H]1O [Streptomycin]
lowest concentration of the antibiotic per ml required for cell death or the highest concentration tested (Cyclotella cryptica): >1 mg per ml
lowest concentration of the antibiotic per ml required for cell death or the highest concentration tested [2]: >1 mg per ml
lowest concentration of the antibiotic per ml required for cell death or the highest concentration tested (Cylindrotheca fusiformis): >1 mg per ml

Neomycin
lowest concentration of the antibiotic per ml required for cell death or the highest concentration tested (Nitzschia alba): >1
lowest concentration of the antibiotic per ml required for cell death or the highest concentration tested (Cyclotella cryptica): >1 mg per ml
lowest concentration of the antibiotic per ml required for cell death or the highest concentration tested (Cylindrotheca fusiformis): >1 mg per ml

CC[C@H]1OC(=O)[C@H](C)[C@@H](O[C@H]2C[C@@](C)(OC)[C@@H](O)[C@H](C)O2)[C@H](C)[C@@H](O[C@@H]2O[C@H](C)C[C@H](N(C)C)[C@H]2O)[C@](C)(O)C[C@@H](C)C(=O)[C@H](C)[C@@H](O)[C@]1(C)O [Erythromycin]
lowest concentration of the antibiotic per ml required for cell death or the highest concentration tested (Cyclotella cryptica): 50 mg per ml
lowest concentration of the antibiotic per ml required for cell death or the highest concentration tested [2]: 100 mg per ml
lowest concentration of the antibiotic per ml required for cell death or the highest concentration tested (Cylindrotheca fusiformis): 100 mg per ml

O=C(N[C@H](CO)[C@H](O)c1ccc([N+](=O)[O-])cc1)C(Cl)Cl [Chloramphenicol]
lowest concentration of the antibiotic per ml required for cell death or the highest concentration tested (Cyclotella cryptica): 50 mg per ml
lowest concentration of the antibiotic per ml required for cell death or the highest concentration tested [2]: 200 mg per ml
lowest concentration of the antibiotic per ml required for cell death or the highest concentration tested (Cylindrotheca fusiformis): 100 mg per ml

CN[C@@H]1[C@H](O)[C@H](NC)[C@H]2O[C@@]3(O)C(=O)C[C@@H](C)O[C@H]3O[C@@H]2[C@H]1O [Spectinomycin]
lowest concentration of the antibiotic per ml required for cell death or the highest concentration tested (Cyclotella cryptica): >1 mg per ml
effect on growth of the diatoms [1]: no significant effect on growth or were effective only at very high concentrations
lowest concentration of the antibiotic per ml required for cell death or the highest concentration tested (Cylindrotheca fusiformis): >1 mg per ml

Nourseothricin
lowest concentration of the antibiotic per ml required for cell death or the highest concentration tested (Nitzschia alba): >250
lowest concentration of the antibiotic per ml required for cell death or the highest concentration tested (Cyclotella cryptica): >250 mg per ml
lowest concentration of the antibiotic per ml required for cell death or the highest concentration tested (Cylindrotheca fusiformis): >250 mg per ml
lowest concentration of antibiotic per ml required for cell death or the lowest concentration tested (Cylindrotheca fusiformis): <10 mg (25%) mg per ml

Cc1c(N)nc([C@H](CC(N)=O)NC[C@H](N)C(N)=O)nc1C(=O)N[C@H](C(=O)N[C@H](C)[C@@H](O)[C@H](C)C(=O)N[C@H](C(=O)NCCC1=N[C@@H](c2nc(C(=O)NCCCCN=C(N)N)cs2)CS1)[C@@H](C)O)[C@@H](O[C@@H]1O[C@@H](CO)[C@@H](O)[C@H](O)[C@@H]1O[C@H]1O[C@H](CO)[C@@H](O)[C@H](OC(N)=O)[C@@H]1O)c1cnc[nH]1 [Zeocin]
lowest concentration of the antibiotic per ml required for cell death or the highest concentration tested (Nitzschia alba): >250
lowest concentration of the antibiotic per ml required for cell death or the highest concentration tested (Cyclotella cryptica): 250 mg per ml
cell death [1]: resulted in cell death

CN[C@@H]1[C@@H](O)[C@@H](O[C@@H]2[C@@H](O)[C@H](O[C@H]3O[C@H]([C@@H](C)O)[C@@H](O)[C@H](O)[C@H]3N)[C@@H](N)C[C@H]2N)OC[C@]1(C)O [G418]
effect on growth of the diatoms [1]: no significant effect on growth or were effective only at very high concentrations
lowest concentration of the antibiotic per ml required for cell death or the highest concentration tested (Cylindrotheca fusiformis): >1 mg per ml

COc1ccc(C[C@H](N)C(=O)N[C@H]2[C@@H](O)[C@H](n3cnc4c(N(C)C)ncnc43)O[C@@H]2CO)cc1 [Puromycin]
lowest concentration of the antibiotic per ml required for cell death or the highest concentration tested (Cyclotella cryptica): 100 mg per ml
lowest concentration of the antibiotic per ml required for cell death or the highest concentration tested [2]: 200 mg per ml
lowest concentration of the antibiotic per ml required for cell death or the highest concentration tested (Cylindrotheca fusiformis): 100 mg per ml

Gentamicin
lowest concentration of the antibiotic per ml required for cell death or the highest concentration tested (Cyclotella cryptica): >1 mg per ml
lowest concentration of the antibiotic per ml required for cell death or the highest concentration tested [2]: >1 mg per ml
lowest concentration of the antibiotic per ml required for cell death or the highest concentration tested (Cylindrotheca fusiformis): >1 mg per ml

Bleomycin
lowest concentration of the antibiotic per ml required for cell death or the highest concentration tested (Cylindrotheca fusiformis): >50 mg per ml

From patent US8008061B2, “Trophic conversion of obligate phototrophic algae through metabolic engineering” (Martek Biosciences Corporation, priority 2000, dated 2011)
